Data reported in patent US12180194B2, “Multi-aziridine compound” (Covestro (Netherlands) B.V., priority 2018, dated 2024).

Test system: Rtkn-GFP
Assay: ToxTracker genotoxicity assay, Rtkn-GFP reporter induction
Conditions: GFP induction vs vehicle at 10% cytotoxicity; 3 h exposure with S9, 24 h recovery

SMILES | Genotoxicity test, With S9 rat liver extract, Rtkn, 10 [fold]
CCCCOCC(CN1CC1C)OC(=O)NCCCCCCn1c(=O)n(CCCCCCNC(=O)OC(COCCCC)CN2CC2C)c(=O)n(CCCCCCNC(=O)OC(COCCCC)CN2CC2C)c1=O (stereo not drawn) [Ex. 14] | 0.9
CC1CN1C1CCCCC1OC(=O)NCCCCCCn1c(=O)n(CCCCCCNC(=O)OC2CCCCC2N2CC2C)c(=O)n(CCCCCCNC(=O)OC2CCCCC2N2CC2C)c1=O (stereo not drawn) [Ex. 19] | 1.2
CCCCCCCCCC(=O)OCC(CN1CC1C)OC(=O)NCCCCCCn1c(=O)n(CCCCCCNC(=O)OC(COC(=O)CCCCCCCCC)CN2CC2C)c(=O)n(CCCCCCNC(=O)OC(COC(=O)CCCCCCCCC)CN2CC2C)c1=O (stereo not drawn) [Ex. 24] | 1.1

Same assay, conditions: GFP induction vs vehicle at 10% cytotoxicity; 24 h exposure, no S9

SMILES | Genotoxicity test, Without S9 rat liver extract, Rtkn, 10 [fold]
CCCCOCC(CN1CC1C)OC(=O)NCCCCCCn1c(=O)n(CCCCCCNC(=O)OC(COCCCC)CN2CC2C)c(=O)n(CCCCCCNC(=O)OC(COCCCC)CN2CC2C)c1=O (stereo not drawn) [Ex. 14] | 0.8
CC1CN1C1CCCCC1OC(=O)NCCCCCCn1c(=O)n(CCCCCCNC(=O)OC2CCCCC2N2CC2C)c(=O)n(CCCCCCNC(=O)OC2CCCCC2N2CC2C)c1=O (stereo not drawn) [Ex. 19] | 1.2
CCCCCCCCCC(=O)OCC(CN1CC1C)OC(=O)NCCCCCCn1c(=O)n(CCCCCCNC(=O)OC(COC(=O)CCCCCCCCC)CN2CC2C)c(=O)n(CCCCCCNC(=O)OC(COC(=O)CCCCCCCCC)CN2CC2C)c1=O (stereo not drawn) [Ex. 24] | 1.1

Same assay, conditions: GFP induction vs vehicle at 25% cytotoxicity; 3 h exposure with S9, 24 h recovery

SMILES | Genotoxicity test, With S9 rat liver extract, Rtkn, 25 [fold]
CCCCOCC(CN1CC1C)OC(=O)NCCCCCCn1c(=O)n(CCCCCCNC(=O)OC(COCCCC)CN2CC2C)c(=O)n(CCCCCCNC(=O)OC(COCCCC)CN2CC2C)c1=O (stereo not drawn) [Ex. 14] | 0.8
CC1CN1C1CCCCC1OC(=O)NCCCCCCn1c(=O)n(CCCCCCNC(=O)OC2CCCCC2N2CC2C)c(=O)n(CCCCCCNC(=O)OC2CCCCC2N2CC2C)c1=O (stereo not drawn) [Ex. 19] | 1.3
CCCCCCCCCC(=O)OCC(CN1CC1C)OC(=O)NCCCCCCn1c(=O)n(CCCCCCNC(=O)OC(COC(=O)CCCCCCCCC)CN2CC2C)c(=O)n(CCCCCCNC(=O)OC(COC(=O)CCCCCCCCC)CN2CC2C)c1=O (stereo not drawn) [Ex. 24] | 1.1

Same assay, conditions: GFP induction vs vehicle at 25% cytotoxicity; 24 h exposure, no S9

SMILES | Genotoxicity test, Without S9 rat liver extract, Rtkn, 25 [fold]
CCCCOCC(CN1CC1C)OC(=O)NCCCCCCn1c(=O)n(CCCCCCNC(=O)OC(COCCCC)CN2CC2C)c(=O)n(CCCCCCNC(=O)OC(COCCCC)CN2CC2C)c1=O (stereo not drawn) [Ex. 14] | 0.8
CC1CN1C1CCCCC1OC(=O)NCCCCCCn1c(=O)n(CCCCCCNC(=O)OC2CCCCC2N2CC2C)c(=O)n(CCCCCCNC(=O)OC2CCCCC2N2CC2C)c1=O (stereo not drawn) [Ex. 19] | 1.3
CCCCCCCCCC(=O)OCC(CN1CC1C)OC(=O)NCCCCCCn1c(=O)n(CCCCCCNC(=O)OC(COC(=O)CCCCCCCCC)CN2CC2C)c(=O)n(CCCCCCNC(=O)OC(COC(=O)CCCCCCCCC)CN2CC2C)c1=O (stereo not drawn) [Ex. 24] | 1.2

Same assay, conditions: GFP induction vs vehicle at 50% cytotoxicity; 3 h exposure with S9, 24 h recovery

SMILES | Genotoxicity test, With S9 rat liver extract, Rtkn, 50 [fold]
CCCCOCC(CN1CC1C)OC(=O)NCCCCCCn1c(=O)n(CCCCCCNC(=O)OC(COCCCC)CN2CC2C)c(=O)n(CCCCCCNC(=O)OC(COCCCC)CN2CC2C)c1=O (stereo not drawn) [Ex. 14] | 0.6
CC1CN1C1CCCCC1OC(=O)NCCCCCCn1c(=O)n(CCCCCCNC(=O)OC2CCCCC2N2CC2C)c(=O)n(CCCCCCNC(=O)OC2CCCCC2N2CC2C)c1=O (stereo not drawn) [Ex. 19] | 1.3
CCCCCCCCCC(=O)OCC(CN1CC1C)OC(=O)NCCCCCCn1c(=O)n(CCCCCCNC(=O)OC(COC(=O)CCCCCCCCC)CN2CC2C)c(=O)n(CCCCCCNC(=O)OC(COC(=O)CCCCCCCCC)CN2CC2C)c1=O (stereo not drawn) [Ex. 24] | 1.2

Same assay, conditions: GFP induction vs vehicle at 50% cytotoxicity; 24 h exposure, no S9

SMILES | Genotoxicity test, Without S9 rat liver extract, Rtkn, 50 [fold]
CCCCOCC(CN1CC1C)OC(=O)NCCCCCCn1c(=O)n(CCCCCCNC(=O)OC(COCCCC)CN2CC2C)c(=O)n(CCCCCCNC(=O)OC(COCCCC)CN2CC2C)c1=O (stereo not drawn) [Ex. 14] | 0.6
CCCCCCCCCC(=O)OCC(CN1CC1C)OC(=O)NCCCCCCn1c(=O)n(CCCCCCNC(=O)OC(COC(=O)CCCCCCCCC)CN2CC2C)c(=O)n(CCCCCCNC(=O)OC(COC(=O)CCCCCCCCC)CN2CC2C)c1=O (stereo not drawn) [Ex. 24] | 1.0

Test system: Bscl2-GFP
Assay: ToxTracker genotoxicity assay, Bscl2-GFP reporter induction
Conditions: GFP induction vs vehicle at 10% cytotoxicity; 3 h exposure with S9, 24 h recovery

SMILES | Genotoxicity test, With S9 rat liver extract, Bscl 2, 10 [fold]
CCCCOCC(CN1CC1C)OC(=O)NCCCCCCn1c(=O)n(CCCCCCNC(=O)OC(COCCCC)CN2CC2C)c(=O)n(CCCCCCNC(=O)OC(COCCCC)CN2CC2C)c1=O (stereo not drawn) [Ex. 14] | 1.0
CC1CN1C1CCCCC1OC(=O)NCCCCCCn1c(=O)n(CCCCCCNC(=O)OC2CCCCC2N2CC2C)c(=O)n(CCCCCCNC(=O)OC2CCCCC2N2CC2C)c1=O (stereo not drawn) [Ex. 19] | 1.1
CCCCCCCCCC(=O)OCC(CN1CC1C)OC(=O)NCCCCCCn1c(=O)n(CCCCCCNC(=O)OC(COC(=O)CCCCCCCCC)CN2CC2C)c(=O)n(CCCCCCNC(=O)OC(COC(=O)CCCCCCCCC)CN2CC2C)c1=O (stereo not drawn) [Ex. 24] | 1.0

Same assay, conditions: GFP induction vs vehicle at 10% cytotoxicity; 24 h exposure, no S9

SMILES | Genotoxicity test, Without S9 rat liver extract, Bscl 2, 10 [fold]
CCCCOCC(CN1CC1C)OC(=O)NCCCCCCn1c(=O)n(CCCCCCNC(=O)OC(COCCCC)CN2CC2C)c(=O)n(CCCCCCNC(=O)OC(COCCCC)CN2CC2C)c1=O (stereo not drawn) [Ex. 14] | 1.1
CC1CN1C1CCCCC1OC(=O)NCCCCCCn1c(=O)n(CCCCCCNC(=O)OC2CCCCC2N2CC2C)c(=O)n(CCCCCCNC(=O)OC2CCCCC2N2CC2C)c1=O (stereo not drawn) [Ex. 19] | 1.1
CCCCCCCCCC(=O)OCC(CN1CC1C)OC(=O)NCCCCCCn1c(=O)n(CCCCCCNC(=O)OC(COC(=O)CCCCCCCCC)CN2CC2C)c(=O)n(CCCCCCNC(=O)OC(COC(=O)CCCCCCCCC)CN2CC2C)c1=O (stereo not drawn) [Ex. 24] | 1.1

Same assay, conditions: GFP induction vs vehicle at 25% cytotoxicity; 3 h exposure with S9, 24 h recovery

SMILES | Genotoxicity test, With S9 rat liver extract, Bscl 2, 25 [fold]
CCCCOCC(CN1CC1C)OC(=O)NCCCCCCn1c(=O)n(CCCCCCNC(=O)OC(COCCCC)CN2CC2C)c(=O)n(CCCCCCNC(=O)OC(COCCCC)CN2CC2C)c1=O (stereo not drawn) [Ex. 14] | 1.0
CC1CN1C1CCCCC1OC(=O)NCCCCCCn1c(=O)n(CCCCCCNC(=O)OC2CCCCC2N2CC2C)c(=O)n(CCCCCCNC(=O)OC2CCCCC2N2CC2C)c1=O (stereo not drawn) [Ex. 19] | 1.2
CCCCCCCCCC(=O)OCC(CN1CC1C)OC(=O)NCCCCCCn1c(=O)n(CCCCCCNC(=O)OC(COC(=O)CCCCCCCCC)CN2CC2C)c(=O)n(CCCCCCNC(=O)OC(COC(=O)CCCCCCCCC)CN2CC2C)c1=O (stereo not drawn) [Ex. 24] | 1.1

Same assay, conditions: GFP induction vs vehicle at 25% cytotoxicity; 24 h exposure, no S9

SMILES | Genotoxicity test, Without S9 rat liver extract, Bscl 2, 25 [fold]
CCCCOCC(CN1CC1C)OC(=O)NCCCCCCn1c(=O)n(CCCCCCNC(=O)OC(COCCCC)CN2CC2C)c(=O)n(CCCCCCNC(=O)OC(COCCCC)CN2CC2C)c1=O (stereo not drawn) [Ex. 14] | 1.1
CC1CN1C1CCCCC1OC(=O)NCCCCCCn1c(=O)n(CCCCCCNC(=O)OC2CCCCC2N2CC2C)c(=O)n(CCCCCCNC(=O)OC2CCCCC2N2CC2C)c1=O (stereo not drawn) [Ex. 19] | 1.3
CCCCCCCCCC(=O)OCC(CN1CC1C)OC(=O)NCCCCCCn1c(=O)n(CCCCCCNC(=O)OC(COC(=O)CCCCCCCCC)CN2CC2C)c(=O)n(CCCCCCNC(=O)OC(COC(=O)CCCCCCCCC)CN2CC2C)c1=O (stereo not drawn) [Ex. 24] | 1.2

Same assay, conditions: GFP induction vs vehicle at 50% cytotoxicity; 3 h exposure with S9, 24 h recovery

SMILES | Genotoxicity test, With S9 rat liver extract, Bscl 2, 50 [fold]
CC1CN1C1CCCCC1OC(=O)NCCCCCCn1c(=O)n(CCCCCCNC(=O)OC2CCCCC2N2CC2C)c(=O)n(CCCCCCNC(=O)OC2CCCCC2N2CC2C)c1=O (stereo not drawn) [Ex. 19] | 1.2
CCCCCCCCCC(=O)OCC(CN1CC1C)OC(=O)NCCCCCCn1c(=O)n(CCCCCCNC(=O)OC(COC(=O)CCCCCCCCC)CN2CC2C)c(=O)n(CCCCCCNC(=O)OC(COC(=O)CCCCCCCCC)CN2CC2C)c1=O (stereo not drawn) [Ex. 24] | 1.1

Same assay, conditions: GFP induction vs vehicle at 50% cytotoxicity; 24 h exposure, no S9

SMILES | Genotoxicity test, Without S9 rat liver extract, Bscl 2, 50 [fold]
CCCCOCC(CN1CC1C)OC(=O)NCCCCCCn1c(=O)n(CCCCCCNC(=O)OC(COCCCC)CN2CC2C)c(=O)n(CCCCCCNC(=O)OC(COCCCC)CN2CC2C)c1=O (stereo not drawn) [Ex. 14] | 1.1
CCCCCCCCCC(=O)OCC(CN1CC1C)OC(=O)NCCCCCCn1c(=O)n(CCCCCCNC(=O)OC(COC(=O)CCCCCCCCC)CN2CC2C)c(=O)n(CCCCCCNC(=O)OC(COC(=O)CCCCCCCCC)CN2CC2C)c1=O (stereo not drawn) [Ex. 24] | 1.0
